ChEMBL document CHEMBL5030565, “Stapled Peptides Targeting SARS-CoV-2 Spike Protein HR1 Inhibit the Fusion of Virus to Its Cell Receptor” (J Med Chem, 2021)
Activity calls are given as the source filed them. The calls are words filed in the database; no cut-off is given here.

Columns and labels:
chymotrypsin = chymotrypsin (Homo sapiens, UniProt P17538+P40313+Q6GPI1+Q99895); experiment: Stability of the compound in PBS at pH 7.4 assessed as chymotrypsin (unknown origin)-mediated proteolysis by measuring remaining compound after 12 hrs by HPLC analysis; assay type: ADME, protein assay; settings: read-out: Stability
SARS-CoV-2 [1] = experiment: Antiviral activity against pseudotyped SARS-CoV-2 infected in Calu-3 cells at higher concentration; assay type: functional, organism-based; settings: Severe acute respiratory syndrome coronavirus 2
SARS-CoV-2 [2] = experiment: Antiviral activity against SARS-CoV-2 infected in Vero E6 cells assessed as reduction in viral replication preincubated for 30 mins followed by viral infection measured after 72 hrs by crystal violet staining based plaque assay; assay type: functional, organism-based; settings: Severe acute respiratory syndrome coronavirus 2, Vero C1008
[3] = target: Spike glycoprotein (Severe acute respiratory syndrome coronavirus 2) (UniProt P0DTC2); experiment: Inhibition of SARS-CoV-2 spike glycoprotein expressed in HEK293T cells transfected with pAAV-CAG-HnCovS-RFP assessed as inhibition of membrane fusion to Huh-7 cells expressing hACE2 at 30 uM measured after 4 hrs by cell-cell fusion based fluorescence assay; assay type: functional
SARS-CoV-2 [4] = experiment: Antiviral activity against SARS-CoV-2 infected in Vero E6 cells assessed as reduction in viral replication at 12.5 uM preincubated for 30 mins followed by viral infection measured after 72 hrs by crystal violet staining based plaque assay; assay type: functional, Severe acute respiratory syndrome coronavirus 2; design: scale not given: the % may be the effect or the level left
SARS-CoV-2 [5] = experiment: Antiviral activity against pseudotyped SARS-CoV-2 infected in Huh7 cells expressing hACE2 at 10 uM preincubated for 1 hr followed by cell infection measured after 2 days by bright-Glo luciferase assay; assay type: functional, Severe acute respiratory syndrome coronavirus 2, Huh-7; settings: time 49 hrs
SARS-CoV-2 [6] = experiment: Antiviral activity against pseudotyped SARS-CoV-2 infected in Huh7 cells expressing hACE2 preincubated for 1 hr followed by cell infection measured after 2 days by bright-Glo luciferase assay; assay type: functional, organism-based; settings: Severe acute respiratory syndrome coronavirus 2, Huh-7

Which remaining at 12 h (chymotrypsin) does the source give for `CC[C@H](C)[C@H](NC(=O)CNC(=O)[C@H](CO)NC(=O)[C@@H](NC(=O)[C@H](CC(=O)O)NC(C)=O)[C@@H](C)CC)C(=O)N[C@@H](CC(N)=O)C(=O)N[C@@H](C)C(=O)N[C@@H](CO)C(=O)N[C@H](C(=O)N[C@H](C(=O)N[C@@H](CC(N)=O)C(=O)N[C@H](C(=O)N[C@@H](CCC(N)=O)C(=O)N[C@@H](CCCCN)C(=O)N[C@@H](CCC(=O)O)C(=O)N[C@H](C(=O)N[C@@H](CC(=O)O)C(=O)N[C@@H](CCCNC(=N)N)C(=O)N[C@@H](CC(C)C)C(=O)N[C@@]1(C)CCC/C=C\CCC[C@@](C)(C(=O)N[C@@H](CC(N)=O)C(=O)N[C@@H](CC(C)C)C(=O)N[C@@H](CC(N)=O)C(=O)N[C@@H](CCC(=O)O)C(=O)N[C@@H](CO)C(=O)N[C@@H](CC(C)C)C(=O)N[C@H](C(=O)N[C@@H](CC(=O)O)C(=O)N[C@@H](CC(C)C)C(=O)N[C@@H](CCC(N)=O)C(=O)N[C@@H](CCC(=O)O)C(=O)N[C@@H](CC(C)C)C(N)=O)[C@@H](C)CC)NC(=O)[C@H](C)NC(=O)[C@H](C(C)C)NC(=O)[C@H](CCC(=O)O)NC1=O)[C@@H](C)CC)[C@@H](C)CC)C(C)C)C(C)C` here?
The remaining at 12 h was > 80%.

What about the Activity (SARS-CoV-2 [1]) of the same compound?
Its Activity is “Active”.

And the EC50 (SARS-CoV-2 [2])?
Its EC50 is 6.56 µM.

And the inhibition [3]?
The inhibition was “Active”.

What about the Activity (SARS-CoV-2 [4]) of the same compound?
The Activity was 55%.

What about the Activity (SARS-CoV-2 [5]) of the same compound?
The Activity was 69.7%.

And the EC50 (SARS-CoV-2 [6])?
Its EC50 is 4.05 µM.
